Reference: patent EP4603105A1, “PHARMACEUTICAL COMPOSITION CONTAINING CYCLIC COMPOUND HAVING SELECTIVE KRAS INHIBITORY EFFECT AGAINST HRAS AND NRAS” (CHUGAI SEIYAKU KABUSHIKI KAISHA, priority 2022, dated 2024)
*1 amine or outer side, *2 acyl side, *3 side chain or, on linkers, in order; H or OH if unused. Where a SMILES comes first, the peptide text is derived from it. Bridges are numbered along the chain shown (N, C = ends). [ ]: non-standard residue; d: D form. The star is where a group is joined. X23 = O=C([C@H](Cc1ccc(C(F)(F)F)cc1)N(CC1CCCC1)[*:1])[*:2]; hPhe(3-Cl-4-CF3) = N[C@@H](CCc1ccc(C(F)(F)F)c(Cl)c1)C(=O)O; X24 = CC(C)CN([C@@H](Cc1ccc(C(F)(F)F)cc1)C(=O)[*:2])[*:1]; X39 = O=C([C@H](Cc1ccc(C(F)(F)F)cc1)N(CC1CCC1)[*:1])[*:2]; X33 = O=C([C@H](Cc1ccc(C(F)(F)F)cc1)N(CC1CC1)[*:1])[*:2]; X18 = CCCCN([C@@H](Cc1ccc(C(F)(F)F)cc1)C(=O)[*:2])[*:1]; X42 = Cc1ccc(C[C@@H](C(=O)[*:2])N(CCC(F)(F)F)[*:1])cc1; X27 = COCCCN([C@@H](Cc1ccc(C)cc1)C(=O)[*:2])[*:1]; X46 = C=CCCN([C@@H](Cc1ccc(C)cc1)C(=O)[*:2])[*:1]; X14 = COCCN([C@@H](Cc1ccc(C)cc1)C(=O)[*:2])[*:1]; X50 = C=CCN([C@@H](Cc1ccc(C)cc1)C(=O)[*:2])[*:1]; NMeGly(cPent) = CN[C@H](C(=O)O)C1CCCC1; NMeD = CN[C@@H](CC(=O)O)C(=O)O; NMeL = CN[C@@H](CC(C)C)C(=O)O; Morpholide = C1CN(*)CCO1; NMeA = CN[C@@H](C)C(=O)O; Ac5c = NC1(C(=O)O)CCCC1; Aze = O=C(O)[C@@H]1CCN1; Sar = CNCC(=O)O

Key:
[1] = target: GDP-bound NRAS wild-type protein (Homo sapiens, UniProt P01111); experiment: Binding to NRAS by surface plasmon resonance (SPR), KD and KD ratio to KRAS; details: ratio of KD for GDP-bound NRAS wild-type protein to KD for KRAS
Outline: (§1)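 SPR, 30°C: Avi-biotin RAS·GDP captured via Biotin CAPture (~100–300 RU); running buffer HBS pH 7.4, 1 mM DTT, 10 mM MgCl2, 0.01% Tween 20, 10 µM GDP, 4% DMSO. Single-cycle kinetics, 100 µL/min, 75 s injections; 1:1 model → KD.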

[2] = system: human lung cancer strain NCI-H441; type: cell-based
Outline: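 Proliferation was scored by […] measured after the reagent was added to cultures kept at 37°C in 5% carbon dioxide.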

HRAS wild-type protein = HRAS wild-type protein (Homo sapiens, UniProt P01112); experiment: Binding to HRAS by surface plasmon resonance (SPR), KD and KD ratio to KRAS; details: ratio of KD for HRAS wild-type protein to KD for KRAS
Outline: as §1

Sequence of HRAS wild-type protein (P01112 whole entry): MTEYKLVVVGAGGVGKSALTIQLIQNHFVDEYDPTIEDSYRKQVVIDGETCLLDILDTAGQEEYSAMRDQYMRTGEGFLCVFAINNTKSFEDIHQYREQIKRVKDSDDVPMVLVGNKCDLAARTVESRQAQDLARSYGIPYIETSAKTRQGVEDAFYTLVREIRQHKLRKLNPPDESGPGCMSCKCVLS
Sequence of GDP-bound NRAS wild-type protein (P01111 whole entry): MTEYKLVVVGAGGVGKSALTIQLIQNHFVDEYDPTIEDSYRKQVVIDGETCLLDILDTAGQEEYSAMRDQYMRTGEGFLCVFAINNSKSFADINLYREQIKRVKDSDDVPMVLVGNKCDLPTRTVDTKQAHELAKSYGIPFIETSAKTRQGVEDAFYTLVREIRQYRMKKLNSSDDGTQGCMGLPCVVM

| Structure (SMILES) | IC50 [2] | NRAS /KRAS [1] | HRAS /KRAS (HRAS wild-type protein) |
| --- | --- | --- | --- |
| C=CCN1C(=O)CN(C)C(=O)CN(C)C(=O)[C@H]([C@@H](C)CC)NC(=O)[C@H](CC(C)C)N(C)C(=O)C[C@@H](C(=O)N2CCOCC2)N(C)C(=O)[C@H](C2CCCC2)N(C)C(=O)C2(CCCC2)NC(=O)[C@@H]2CCCN2C(=O)[C@H](CCc2ccc(C(F)(F)F)c(Cl)c2)NC(=O)CN(C)C(=O)[C@@H]1Cc1ccc(C)cc1 [PP0100] ([NMeL]I[Sar][Sar][X50][Sar][hPhe(3-Cl-4-CF3)]P[Ac5c][NMeGly(cPent)][NMeD]-Morpholide; lactam N-11) | 0.0243 µM | B (a compound having 3 or more and less than 10 is denoted as B) | C (A compound having a KD ratio of 0.1 or more and less than 3 is denoted as C) |
| C=CCCN1C(=O)CN(C)C(=O)CN(C)C(=O)[C@H]([C@@H](C)CC)NC(=O)[C@H](CC(C)C)N(C)C(=O)C[C@@H](C(=O)N2CCOCC2)N(C)C(=O)[C@H](C2CCCC2)N(C)C(=O)C2(CCCC2)NC(=O)[C@@H]2CCCN2C(=O)[C@H](CCc2ccc(C(F)(F)F)c(Cl)c2)NC(=O)CN(C)C(=O)[C@@H]1Cc1ccc(C)cc1 [PP0101] ([NMeL]I[Sar][Sar][X46][Sar][hPhe(3-Cl-4-CF3)]P[Ac5c][NMeGly(cPent)][NMeD]-Morpholide; lactam N-11) | 0.0104 µM | B (a compound having 3 or more and less than 10 is denoted as B) | C (A compound having a KD ratio of 0.1 or more and less than 3 is denoted as C) |
| CCCCN1C(=O)[C@@H]2CCN2C(=O)[C@H](C)N(C)C(=O)[C@H]([C@@H](C)CC)NC(=O)[C@H](CC(C)C)N(C)C(=O)C[C@@H](C(=O)N2CCOCC2)N(C)C(=O)[C@H](C2CCCC2)N(C)C(=O)C2(CCCC2)NC(=O)[C@@H]2CCCN2C(=O)[C@H](CCc2ccc(C(F)(F)F)c(Cl)c2)NC(=O)CN(C)C(=O)[C@@H]1Cc1ccc(C(F)(F)F)cc1 [PP0106] ([NMeL]I[NMeA][Aze][X18][Sar][hPhe(3-Cl-4-CF3)]P[Ac5c][NMeGly(cPent)][NMeD]-Morpholide; lactam N-11) | 0.0123 µM | C (A compound having a KD ratio of 0.1 or more and less than 3 is denoted as C) | B (a compound having 3 or more and less than 10 is denoted as B) |
| CC[C@H](C)[C@@H]1NC(=O)[C@H](CC(C)C)N(C)C(=O)C[C@@H](C(=O)N2CCOCC2)N(C)C(=O)[C@H](C2CCCC2)N(C)C(=O)C2(CCCC2)NC(=O)[C@@H]2CCCN2C(=O)[C@H](CCc2ccc(C(F)(F)F)c(Cl)c2)NC(=O)CN(C)C(=O)[C@H](Cc2ccc(C(F)(F)F)cc2)N(CC(C)C)C(=O)[C@@H]2CCN2C(=O)[C@H](C)N(C)C1=O [PP0107] ([NMeL]I[NMeA][Aze][X24][Sar][hPhe(3-Cl-4-CF3)]P[Ac5c][NMeGly(cPent)][NMeD]-Morpholide; lactam N-11) | 0.0322 µM | C (A compound having a KD ratio of 0.1 or more and less than 3 is denoted as C) | C (A compound having a KD ratio of 0.1 or more and less than 3 is denoted as C) |
| CC[C@H](C)[C@@H]1NC(=O)[C@H](CC(C)C)N(C)C(=O)C[C@@H](C(=O)N2CCOCC2)N(C)C(=O)[C@H](C2CCCC2)N(C)C(=O)C2(CCCC2)NC(=O)[C@@H]2CCCN2C(=O)[C@H](CCc2ccc(C(F)(F)F)c(Cl)c2)NC(=O)CN(C)C(=O)[C@H](Cc2ccc(C(F)(F)F)cc2)N(CC2CCC2)C(=O)[C@@H]2CCN2C(=O)[C@H](C)N(C)C1=O [PP0109] ([NMeL]I[NMeA][Aze][X39][Sar][hPhe(3-Cl-4-CF3)]P[Ac5c][NMeGly(cPent)][NMeD]-Morpholide; lactam N-11) | 0.0217 µM | C (A compound having a KD ratio of 0.1 or more and less than 3 is denoted as C) | B (a compound having 3 or more and less than 10 is denoted as B) |
| CC[C@H](C)[C@@H]1NC(=O)[C@H](CC(C)C)N(C)C(=O)C[C@@H](C(=O)N2CCOCC2)N(C)C(=O)[C@H](C2CCCC2)N(C)C(=O)C2(CCCC2)NC(=O)[C@@H]2CCCN2C(=O)[C@H](CCc2ccc(C(F)(F)F)c(Cl)c2)NC(=O)CN(C)C(=O)[C@H](Cc2ccc(C(F)(F)F)cc2)N(CC2CCCC2)C(=O)[C@@H]2CCN2C(=O)[C@H](C)N(C)C1=O [PP0110] ([NMeL]I[NMeA][Aze][X23][Sar][hPhe(3-Cl-4-CF3)]P[Ac5c][NMeGly(cPent)][NMeD]-Morpholide; lactam N-11) | 0.0565 µM | C (A compound having a KD ratio of 0.1 or more and less than 3 is denoted as C) | B (a compound having 3 or more and less than 10 is denoted as B) |

Molecules with a lower IC50 [2], results first:

| IC50 [2] | Structure (SMILES) | NRAS /KRAS [1] | HRAS /KRAS (HRAS wild-type protein) |
| --- | --- | --- | --- |
| 0.0082 µM | CC[C@H](C)[C@@H]1NC(=O)[C@H](CC(C)C)N(C)C(=O)C[C@@H](C(=O)N2CCOCC2)N(C)C(=O)[C@H](C2CCCC2)N(C)C(=O)C2(CCCC2)NC(=O)[C@@H]2CCCN2C(=O)[C@H](CCc2ccc(C(F)(F)F)c(Cl)c2)NC(=O)CN(C)C(=O)[C@H](Cc2ccc(C)cc2)N(CCC(F)(F)F)C(=O)CN(C)C(=O)CN(C)C1=O [PP0103] ([NMeL]I[Sar][Sar][X42][Sar][hPhe(3-Cl-4-CF3)]P[Ac5c][NMeGly(cPent)][NMeD]-Morpholide; lactam N-11) | B (a compound having 3 or more and less than 10 is denoted as B) | C (A compound having a KD ratio of 0.1 or more and less than 3 is denoted as C) |
| 0.0067 µM | CC[C@H](C)[C@@H]1NC(=O)[C@H](CC(C)C)N(C)C(=O)C[C@@H](C(=O)N2CCOCC2)N(C)C(=O)[C@H](C2CCCC2)N(C)C(=O)C2(CCCC2)NC(=O)[C@@H]2CCCN2C(=O)[C@H](CCc2ccc(C(F)(F)F)c(Cl)c2)NC(=O)CN(C)C(=O)[C@H](Cc2ccc(C)cc2)N(CCOC)C(=O)CN(C)C(=O)CN(C)C1=O [PP0104] ([NMeL]I[Sar][Sar][X14][Sar][hPhe(3-Cl-4-CF3)]P[Ac5c][NMeGly(cPent)][NMeD]-Morpholide; lactam N-11) | B (a compound having 3 or more and less than 10 is denoted as B) | C (A compound having a KD ratio of 0.1 or more and less than 3 is denoted as C) |
| 0.0083 µM | CC[C@H](C)[C@@H]1NC(=O)[C@H](CC(C)C)N(C)C(=O)C[C@@H](C(=O)N2CCOCC2)N(C)C(=O)[C@H](C2CCCC2)N(C)C(=O)C2(CCCC2)NC(=O)[C@@H]2CCCN2C(=O)[C@H](CCc2ccc(C(F)(F)F)c(Cl)c2)NC(=O)CN(C)C(=O)[C@H](Cc2ccc(C)cc2)N(CCCOC)C(=O)CN(C)C(=O)CN(C)C1=O [PP0105] ([NMeL]I[Sar][Sar][X27][Sar][hPhe(3-Cl-4-CF3)]P[Ac5c][NMeGly(cPent)][NMeD]-Morpholide; lactam N-11) | B (a compound having 3 or more and less than 10 is denoted as B) | C (A compound having a KD ratio of 0.1 or more and less than 3 is denoted as C) |
| 0.009 µM | CC[C@H](C)[C@@H]1NC(=O)[C@H](CC(C)C)N(C)C(=O)C[C@@H](C(=O)N2CCOCC2)N(C)C(=O)[C@H](C2CCCC2)N(C)C(=O)C2(CCCC2)NC(=O)[C@@H]2CCCN2C(=O)[C@H](CCc2ccc(C(F)(F)F)c(Cl)c2)NC(=O)CN(C)C(=O)[C@H](Cc2ccc(C(F)(F)F)cc2)N(CC2CC2)C(=O)[C@@H]2CCN2C(=O)[C@H](C)N(C)C1=O [PP0108] ([NMeL]I[NMeA][Aze][X33][Sar][hPhe(3-Cl-4-CF3)]P[Ac5c][NMeGly(cPent)][NMeD]-Morpholide; lactam N-11) | C (A compound having a KD ratio of 0.1 or more and less than 3 is denoted as C) | C (A compound having a KD ratio of 0.1 or more and less than 3 is denoted as C) |
